Experimental data taken from US20240049707A1, “PESTICIDE COMPOSITIONS OF LICOCHALCONE C” (METABOLIC INSIGHTS LTD., priority 2020, published 2024).

How the values were obtained:
[1] = system: Pythium aphanidermatum; experiment: In-vivo validation under greenhouse conditions in cucumber seedlings infected with Pythium aphanidermatum; settings: preventative treatment 24 h before inoculation; 2 types of formulations; 100 to 400 ppm; evaluated 7 days after inoculation
Description: FIGS. 1-8 show the effect of Licochalcone C (LIC) on cucumber seedlings survival in 8 independent experiments determined as percentage of disease severity 7 days following inoculation with Pythium aphanidermatum. FIGS. 9-11 show effect of Licochalcone C (LIC) on cucumber seedlings survival in 3 independent experiments determined as of disease severity 7 days following inoculation with Rhizoctonia solani. * means that p-value <0.05, ** means that p-value is <0.01, # means that p-value <0.1, n.s. means non-significant difference vs. non-treated plants. For formulation description used for Licochalcone C see Example 7.
To evaluate the effect of a Licochalcone C in infected plants compared to control plants (infected but not treated) the data was analysed by Student's t-test and the p-value is calculated. The minimum number of repeats in each experiment was 3. Results were considered significant if p<0.05. The data presented as mean with standard error mean from biological replicates. * means that p-value <0.05, ** means that p-value is <0.01, # means that p-value <0.1. […]
General description: Pythium aphanidermatum disease severity development was evaluated following preventative treatment by Licochalcone C (LIC) […]

[2] = system: Sclerotinia sclerotiorum; experiment: Microplate based screening of bioactivity against Sclerotinia sclerotiorum; format: cell-based; settings: 10 μl of 250 ppm solution + 40 μl inoculum, activity grade x repeats x days of activity/252 x 100
Experimental: Diluted in DMSO purified Licochalcone C was added to microplate wells and mixed with 50 μl of hyphae suspension and growth of the fungus starting from blended hyphae was monitored by visual inspection. Dilute the inoculum stock 1:10 in PDBC—2 ml in 20 ml, or calculate the dilution needed, to prepare final concentration of 2000 CFU/ml. The final number of hyphae should be 100 CFU in each well. Microplate Preparation for Activity Experiment: • 1) Take a stock solution of purified 1% Licochalcone C in DMSO from the −20 freezer and thaw it on the bench. • 2) Take 1 μl of stock solution of 1% Licochalcone C and dilute up to 250 ppm with 39 μl of water. • 3) Take 10 μl of the diluted (250 ppm) Licochalcone C solution into the wells of the microplate using a multi-pipette. • 4) Add 40 μl of vigorously mixed spore suspension inoculum to the wells of the microplate using a multi-pipette. • 5) Seal the plate with transparent sealer • 6) Shake the plate for 10 min at 2000 RPM to mix the Licochalcone C with the hyphae suspension • 7) Centrifugate the plate at 1000RCF for is and stop to collect the liquid at the bottom of the plate. • 8) Collect the plates on the bench until all microplates are ready for incubation. • 9) Insert microplates into a plastic box and put the box in the incubator at 21° C. […]

COc1c(/C=C/C(=O)c2ccc(O)cc2)ccc(O)c1CC=C(C)C [Licochalcone C, (E)-3-[4-hydroxy-2-methoxy-3-(3-methylbut-2-enyl)phenyl]-1-(4-hydroxyphenyl)prop-2-en-1-one]
efficacy in preventing Pythium disease in cucumber seedling [1]: up to 100% | Relative Activity value (%) [2]: 13%
